Measured values reported in PMC12234328, “A naphthalimide derivative exerts potent antiplatelet and antithrombotic activities without a bleeding tendency” (Frontiers in Pharmacology, 2025).
Like-named read-outs stand apart in the source and are kept apart here.

Assays:
[1] = tested on: thrombus formation in mesenteric venules; test: Fluorescein sodium-mediated thrombus formation in mesenteric microvessels of mice; type: in vivo; conditions: 20 mg/kg i.v., positive control, n = 6, mean ± SEM
Description: Male ICR mice (weighing 20–25 g and aged 5–6 weeks) were purchased from BioLasco (Taipei, Taiwan). The animal use protocol for this project was approved by the Affidavit of Approval of Animal Use Protocol–Taipei Medical University (LAC-2020–0074). All animal experiments were conducted in accordance with the Guide for the Care and Use of Laboratory Animals, Eighth Edition (2011).
The mice were anesthetized with an oxygen–air mixture containing 3% isoflurane at a gas flow rate of 1.5–2 L/min. A bolus dose (bolus volume: 20 μL) of compound 6 (0.3 mg/kg, 0.6 mg/kg, or 1.2 mg/kg), DMSO (solvent control; 1.1 g/kg), or aspirin (20 mg/kg; positive control) was intravenously administered through the tail vein before the administering sodium fluorescein (15 mg/kg). The small intestinal segments were placed on a transparent culture dish, and the mesenteric vessels were observed under a microscope. Venules (20–30 μm) were selected and irradiated with light (wavelength <520 nm) to induce endothelial damage, causing thrombus formation and subsequent vessel occlusion. The time required to occlude a microvessel was recorded ([Lin et al., 2013]). A formula for dose translation based on the […] was used to calculate the appropriate dose for use in the mice ([Reagan-Shaw et al., 2008]). [Reagan-Shaw et al. (2008)] reported that the animal dose should not be extrapolated to a human equivalent dose (HED) by a simple conversion based on body weight. […] The formula for dose translation based on BSA is as follows: HED (mg/kg) = Animal dose (mg/kg) multiply by Animal Km/Human Km. Mouse Km is 3 and Human Km is 37.
FIGURE 3 Effects of compound 6 on thrombosis and hemostasis in mice. Mice were treated with compound 6 (0.3, 0.6, or 1.2 mg/kg), DMSO (solvent control), or aspirin (20 mg/kg; positive control) via intravenous route for 10 min. (A) The microthrombus formation (arrows) in mesenteric venules. Scale bar = 30 μm. […] Each point on the plot indicates a mouse (n = 6). Data (A,B) are presented as means ± SEM (n = 6). *p < 0.05 and ***p < 0.001 compared with the DMSO group.

[2] = tested on: human platelet suspensions stimulated with collagen; parameters: method as in Shih et al., 2021; conditions: human platelets; ref Shih et al., 2021; read-out: IC50, collagen-induced platelet aggregation; cited from earlier work
recombinant human GPVI = target: T1, recombinant human GPVI (Homo sapiens, UniProt Q9HCN6); test: Surface plasmon resonance binding assay (OpenSPR); conditions: his-tagged recombinant GPVI on NTA chip, compound at 0.1 and 1 μM; read-out: KD (equilibrium dissociation constant)
T1 sequence (Q9HCN6 21-267 limits assumed): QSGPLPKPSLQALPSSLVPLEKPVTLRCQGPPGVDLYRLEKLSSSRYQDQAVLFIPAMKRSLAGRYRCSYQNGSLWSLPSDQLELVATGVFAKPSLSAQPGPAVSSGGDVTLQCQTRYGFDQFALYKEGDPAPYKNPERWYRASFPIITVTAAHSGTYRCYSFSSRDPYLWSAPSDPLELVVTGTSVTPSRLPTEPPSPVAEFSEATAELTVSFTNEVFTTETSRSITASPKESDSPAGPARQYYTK
Description: Surface plasmon resonance (SPR) analysis was performed using an OpenSPR instrument (Nicoya, Kitchener, Canada). A nitrilotriacetic acid (NTA) sensor chip was installed in the OpenSPR instrument. Running buffer (phosphate-buffered saline) was pumped at the maximum flow rate, and 80% isopropanol was injected to remove any bubbles. Subsequently, 200 μL of a 200 mM imidazole solution was injected to prime the sensor surface. After rinsing the chip with running buffer, 200 μL of a 40 mM NiCl2 solution was used to activate the NTA chip. After 5 min of interaction time, his-tagged recombinant GPVI proteins were bound to the NTA chip by perfusing the GPVI protein solution at a flow rate of 20 μL/min. Solutions of compound 5 or compound 6 (0.1 and 1 μM) were then injected. The equilibrium dissociation constant (KD) was determined using the OpenSPR system (Nicoya).
An SPR binding assay was performed. First, recombinant human GPVI was coated on the NTA sensor chip. Solutions of compound 5 and compound 6 (0.1 and 1 μM) were then perfused on the chip, and the KD was determined using the OpenSPR system (Nicoya Lifesciences).
FIGURE 7 Direct binding of compound 6 on GPVI. […] Equilibrium dissociation constant (KD) were determined using the OpenSPR system. […]

[3] = tested on: thrombus formation in mesenteric venules; parameters: method as in Shih et al., 2021; conditions: mice, ref Shih et al., 2021, cited from earlier work
[4] = tested on: human platelet suspensions stimulated with thrombin; parameters: method as in Shih et al., 2021; conditions: high concentrations; ref Shih et al., 2021; cited from earlier work
[5] = tested on: tail bleeding (hemostasis); parameters: method as in Shih et al., 2021; conditions: ref Shih et al., 2021; cited from earlier work
[6] = tested on: human platelet suspensions stimulated with U46619; parameters: method as in Shih et al., 2021; conditions: high concentrations; ref Shih et al., 2021; cited from earlier work

Row | Kd (recombinant human GPVI) [µM] | SMILES | Occlusion time [1] [s] | IC50 [2] [µM] | Thrombus formation ([3]; 1.2 mg/kg) | Thrombus formation ([3]; 2.3 mg/kg) | Effect on thrombin-induced platelet aggregation [4] | Bleeding tendency [5] | Effect on U46619-induced platelet aggregation [6]
1 |  | CC(=O)Oc1ccccc1C(=O)O [aspirin, reference compound] | 492.2 ± 31.9 |  |  |  |  |  | 
2 | 0.3 | CN(C)CCN1C(=O)c2cccc3c(NCCNC(=O)c4ccccn4)ccc(c23)C1=O [compound 5] |  | 6.5 | not | inhibits thrombus formation | can block | demonstrated a bleeding tendency | can block
